The results in this text go back to US11186612B2, “Substance P analog having progenitor cell or stem cell recruiting activity and method for progenitor cell or stem cell recruiting using the same” (AJOU UNIVERSITY INDUSTRY-ACADEMIC COOPERATION FOUNDATION, priority 2019, dated 2021).

Where no end group is shown, it is not given here.

The test system of test [1] is human-derived MSCs (hMSCs). In words: Stem cell migration evaluation ex vivo (24-well Transwell plate, PKH 26-labeled hMSCs). The test is classed as cell-based. The conditions noted are these: 1 μg/mL in DMEM + 1% FBS in bottom well, FIG. 2; for stem cell migration compared with the control: hMSCs in upper chamber. The protocol:
In the present invention, to compare the stem cell recruiting activities of SP and the SP1 of the present invention, stem cell migration was evaluated in an ex vivo environment.
First, human-derived MSCs (hMSCs) were labeled with a PKH 26 dye (Sigma, USA), and 5×10^4 cells were put into an upper chamber (8.0 μm pore size) of a 24-well Transwell plate (SPL, Korea). After the hMSCs were cultured in the upper chamber for 48 hours using a serum-free DMEM (Gibco, USA), a medium prepared under the following conditions in Table 2 was added into a bottom well, and then the medium was replaced with a fresh one every third day, followed by observing hMSCs in the bottom well using a fluorescence microscope.

Test [2] concerns human-derived MSCs (hMSCs). The test can be described thus: In vivo migration of ICG-labeled hMSCs to injected Cx-HA hydrogel containing SP or SP1 (NIR fluorescence imaging). The arrangement: species or system nude mouse. The settings on record: for fluorescence (recruited hMSC) at injected site: NIR-labeled Cx-HA hydrogel with 1 μg/mL peptide injected in one side of nude mouse, hMSCs via caudal vein, control Cx-HA no fluorescence. The protocol:
Each of the NIR-HA-TET and NIR-HA-TCO, which were prepared in Example 3-1, was dissolved in 2% physiological saline to have a volume of 20 mg/mL, thereby preparing an aqueous solution, and 1 μg/mL of SP having an amino acid sequence of SEQ ID NO: 1 or SP1 having an amino acid sequence of SEQ ID NO: 2 was added to each solution. After 1-hour stirring, a hyaluronic acid hydrogel solution containing a stem cell recruiting factor was obtained by mixing the mixed solution prepared by stirring each of the solutions using a dual syringe.
NIR-labeled Cx-HA was injected into one side of a nude mouse, and NIR-labeled Cx-HA containing a stem cell recruiting factor was injected into the other side thereof, as shown in Table 3.
To visually confirm the extent of stem cell recruiting of SP1 in the present invention, hMCSs were labeled with indocyanine green and injected into a mouse caudal vein.
First, an indocyanine green (ICG) solution was prepared by dissolving 2 mg of ICG in 200 μL of DMSO, and mixing the resulting solution with 800 μL of a culture medium (DMEM (low-glucose)+10% FBS+1% penicillin-streptomycin). 10 μL of a 10 mg/mL protamine solution, 600 μL of the ICG solution and 600 μL of MEM-α were mixed, and gently stirred for 5 minutes. Afterward, the medium was removed from the flask in which hMSCs were cultured, replaced with 10 mL of a serum-free DMEM (low-glucose) medium, and then incubated for 1 hour at 37° C. under a 5% CO2 condition by adding a protamine/ICG solution.
Subsequently, the medium was removed, and the cells were washed with 10 mL PBS and treated with trypsin, thereby obtaining hMSCs. The hMSCs were prepared to be 1×10^6 cells/100 μL, and […] was injected into the caudal veins of nude mice using a […] syringe (FIG. 3). NIR fluorescence imaging was performed at a predetermined time using FOBI (NeoScience, Suwon, Korea) at 730 nm under conditions of an exposure of 2000 ms and a gain of 5.
To confirm the extent of promotion of in vivo hMSC migration by SP1 in the present invention, the hMSC-injected nude mice prepared in Example 4 were subjected to NIR fluorescence imaging using FOBI (NeoScience, Suwon, Korea) at 730 nm under conditions of an exposure of 2000 ms and a gain of 5.

As for “RPKPQQFFGLM (RPKPQQFFGLM-NH2) [SP, neuropeptide of 11 amino acids (Arg-Pro-Lys-Pro-Gln-Gln-Phe-Phe-Gly-Leu-Met-NH2), endogenous NKR1 ligand, reference compound]”, the “stem cell migration compared with the control” value in test [1] is “stem cells moved”. Further, in test [2], the “fluorescence (recruited hMSC) at injected site” value is reported as “fluorescence was observed”.

On to RISPQQRDALA (SP1), for which, in test [1], the “number of moved stem cells compared with the SP-treated group” value was “high” and the “stem cell migration compared with the control” value is “stem cells moved”. For the same sequence, the “stem cell recruiting activity maintenance time” value in test [2] (Cx-HA hydrogel 1 μg/mL peptide, nude mouse, FIG. 6, compared with conventional SP) is recorded as “longer”. For the same sequence, the “stem cell recruiting activity, comparing FIGS. 4 (SP) and 5 (SP1)” value in test [2] (Cx-HA hydrogel 1 μg/mL peptide, nude mouse, NIR imaging over time, compared with SP) is given as “higher stem cell recruiting activity”. Further, in test [2] (Cx-HA hydrogel 1 μg/mL peptide, nude mouse, compared with conventional SP), the “amount of stem cells moved to the injected site, quantified (FIG. 6): stem cell recruiting activity” value is “higher stem cell recruiting activity”. The “fluorescence (recruited hMSC) at injected site” value in test [2] was “fluorescence was observed”.
